Article PMC10571957, “αV-Integrin-Dependent Inhibition of Glioblastoma Cell Migration, Invasion and Vasculogenic Mimicry by the uPAcyclin Decapeptide” (Cancers, 2023)
Where “and” joins values, the source holds several entries; their conditions need not be identical. Identical values can stand only once. Square brackets hold non-standard residues; d marks the D form. NMeV = CN[C@H](C(=O)O)C(C)C

Columns and labels:
[1] = tested on: GBM models; details: cited from earlier work
Source text: (§1) Since the identification of the integrin-binding domain (RGD) in fibronectin/vitronectin, RGD-containing peptides and derived compounds have been developed. […] In contrast, other trials have not shown cilengitide to be better in terms of progression-free survival or overall survival than the standard treatment ...

[2] = tested on: patients with advanced glioblastoma; details: cited from earlier work
Source text: as §1

[3] = tested on: aggressive and recurrent meningiomas; details: combination with an mTOR inhibitor; ref [72]; cited from earlier work
Source text: As far as translation into clinics is concerned, it is worth mentioning that small peptides, such as uPAcyclin, are generally non-immunogenic and cost-effective to produce, and some of them have already entered clinical trials. […] Nevertheless, small peptides need to reach molecular targets to accomplish their effects. Thus, they often depend on physiological transports and ...

[4] = tested on: U87-MG cells (αV integrin); assay: FITC-uPAcyclin receptor binding/competition, U87-MG; parameters: species or system human; details: vitronectin 200 µM, anti-αV 5 µg/mL, anti-α2 1 µg/mL
Procedure: The U87-MG, U251-MG, and U138-MG cell lines were harvested and acid-treated, as described. Then, 2 × 10^6 cells/sample were exposed for 30 min at 4 °C to uPAcyclin or S-uPAcyclin at the indicated concentrations, or with the following antibodies: VNR147 monoclonal anti-αV integrin (Chemicon Int. Inc., Temecula, CA, USA), polyclonal anti-αV (Millipore, Burlington, MA, USA), monoclonal anti-α2 (Chemicon Int. Inc., Temecula, CA, USA), polyclonal anti-actin (Sigma-Aldrich, St. Louis, MO, USA), monoclonal anti-GAPDH (Abcam, Cambridge, UK), and purified vitronectin (VN, Corning, Glendale, AZ, USA). The cells were subsequently incubated with 50 nM FITC-uPAcyclin for 2 h at 4 °C, as described. At the end of incubation, the cells were washed and the cell surface-associated fluorescence was determined using a fluorimeter (VICTOR^TM X3-PerkinElmer, Waltham, MA, USA). All binding assays were performed three times, with duplicate samples, and analyzed as described in Section 2.11.
Figure 2 αV expression of U87-MG, U251-MG, and U138-MG GBM cells and specific binding of FITC-uPAcyclin. (A) U87-MG, U251-MG, U138-MG, HEK-293, and HEK-293/αV total cell lysates were subjected to Western blotting and probed using polyclonal anti-αV or polyclonal anti-actin as loading control. (B) A total of 2 × 10^6 U87-MG, U251-MG, U138-MG, HEK-293/αV, or HEK-293 cells were pre-incubated for 30 min at 4 °C with 500 nM uPAcyclin and further exposed to 50 nM FITC-uPAcyclin for 2 h at 4 °C. At the end of the incubation, the unbound material was washed and cell-associated FITC-uPAcyclin was quantitated by a fluorimeter. The net value of cell-surface-associated fluorescence, corresponding to the specific binding, is shown. (C) A total of 2 × 10^6 U87-MG, U251-MG, and U138-MG cells were pre-incubated for 30 min at 4 °C with increasing concentrations of unlabeled uPAcyclin and then assayed for binding of FITC-uPAcyclin, for 2 h at 4 °C. Cell-surface-associated fluorescence, as percentage of the samples […], is shown. (D) U87-MG cells were pre-incubated with uPAcyclin (1 pM, 100 nM), scrambled uPAcyclin (S-uPAcyclin, 1 pM and 100 nM)), vitronectin (200 µM), anti-αv polyclonal (anti-αV Pclonal, 5 µg/mL) or monoclonal (anti-αV MoAb, 5 µg/mL) or anti-α2 monoclonal (anti-α2 MoAb, 1 µg/mL), polyclonal anti-actin, and monoclonal anti GAPDH. Then, cells were treated as in B (* p-value < 0.05; *** p-value < 0.001).

[5] = tested on: mice; parameters: method as in PMID 12183425; details: ref [65]; cited from earlier work
[6] = tested on: gynecologic malignancies; parameters: method as in PMID 18760451, PMID 22446624; details: ref [66],[67], cited from earlier work

Question: Which “effect in GBM models” value ([1]; ref [51]) does the source give for “cilengitide: known αVβ3/αVβ5 integrin inhibitor (cyclo(RGD[dF][NMeV]); chains of the INN, looked up)” here?
Answer: The value was “cytotoxic, anti-angiogenetic, and anti-invasive effect in GBM models”.

Question: And the “tumor angiogenesis at lower doses” value ([1]; suggested reason for failure in GBM patients, ref [54])?
Answer: Its value is “detrimental stimulation of tumor angiogenesis at lower doses”.

Question: What about the overall survival effect ([2]; patients with advanced glioblastoma, ref [52]) of the same substance?
Answer: Its overall survival effect is “seemed to suggest a positive effect on overall survival”.

Question: What about the “progression-free or overall survival vs standard treatments” value ([2]; ref [53]) of the same substance?
Answer: Its value is “have not shown cilengitide to be better in terms of progression-free survival or overall survival than the standard treatments”.

Question: Which efficacy and tolerability [3] does the source give for octreotide here?
Answer: The efficacy and tolerability was “effective and well tolerated”.

Question: What does the source list for “vitronectin: purified vitronectin (Corning)”?
Answer: competition with FITC-uPAcyclin binding, in words ([4]; U87-MG, S-uPAcyclin 1 pM and 100 nM): only at a high concentration; FITC-uPAcyclin binding, single values ([4]; T-test sheet, single replicates of all EXPTs): 42 and 50 and 45 and 47

Question: For Ac-K^136PSSPPEE^143-NH2 [Å6], which “anti-angiogenetic and anti-metastatic activity” value [5] is on record?
Answer: Its value is “clearcut anti-angiogenetic and anti-metastatic activities in mice”.

Question: And the tolerability ([6]; phase I, gynecologic malignancies)?
Answer: The tolerability was “well tolerated”.

Question: What about the disease progression ([6]; phase II) of the same substance?
Answer: Its disease progression is “delayed disease progression in the treated individuals”.
